This passage reports mass density results from the NIST ThermoML archive (doi:10.1021/je900542y).

For series [1] the following is noted: 298.15 K; 101 kPa; Liquid.
Series [2] in a line: mn = molality of the nth substance listed, in mol/kg. Conditions: 298.15 K, 101 kPa, Liquid.

Molecules are shown by their SMILES. “And” between values parts separate entries of the source, which are not always exact repeats. Equal values may be shown once. ± gives the expanded uncertainty stated by the source.

A word on the mass density: it is the mass of a sample divided by its volume.

With `CC#N` [acetonitrile], the mass density in series [1] was 776.01 ± 0.6 kg/m3 and 776.02 ± 0.59 kg/m3.
Turning to `CC[N+](CC)(CC)CC.[I-]` [tetraethylammonium iodide] + CC#N, the mass density in series [2] (m1 = 0.0001) is 776.01 ± 0.6 kg/m3; in series [2] (m1 = 0.0002) it was 776.02 ± 0.59 kg/m3; in series [2] (m1 = 0.00354) it was 776.16 ± 0.59 kg/m3; in series [2] (m1 = 0.003541), 776.16 ± 0.59 kg/m3; in series [2] (m1 = 0.007081), 776.32 ± 0.59 kg/m3; in series [2] (m1 = 0.007082), 776.32 ± 0.59 kg/m3. Also, the mass density was 776.47 ± 0.59 kg/m3 in series [2] (m1 = 0.01062); 776.46 ± 0.59 kg/m3 in series [2] (m1 = 0.01064); 776.63 ± 0.59 kg/m3 in series [2] (m1 = 0.01416); 776.61 ± 0.59 kg/m3 in series [2] (m1 = 0.01417); 776.77 ± 0.59 kg/m3 and 776.78 ± 0.59 kg/m3 in series [2] (m1 = 0.0176); 776.93 ± 0.59 kg/m3 in series [2] (m1 = 0.02124). Besides, the mass density in series [2] (m1 = 0.02832) is given as 777.24 ± 0.59 kg/m3.
As to `CC[N+](CC)(CC)CC.[I-]` [tetraethylammonium iodide] + CC(C)=O, the mass density amounted to 783.81 ± 0.5 kg/m3 in series [2] (m1 = 0.0001); 783.81 ± 0.5 kg/m3 in series [2] (m1 = 0.0002); 784.1 ± 0.5 kg/m3 in series [2] (m1 = 0.00536); 784.11 ± 0.5 kg/m3 in series [2] (m1 = 0.005361); 784.2 ± 0.49 kg/m3 in series [2] (m1 = 0.007105); 784.21 ± 0.49 kg/m3 in series [2] (m1 = 0.007106). The mass density in series [2] (m1 = 0.007107) came out at 784.2 ± 0.49 kg/m3; in series [2] (m1 = 0.008909), 784.3 ± 0.5 kg/m3; in series [2] (m1 = 0.00891), 784.3 ± 0.5 kg/m3; in series [2] (m1 = 0.01242), 784.5 ± 0.49 kg/m3; in series [2] (m1 = 0.0142) it was 784.6 ± 0.49 kg/m3; in series [2] (m1 = 0.0177), 784.81 ± 0.49 kg/m3. For the same compound, the mass density in series [2] (m1 = 0.01771) came to 784.81 ± 0.49 kg/m3; in series [2] (m1 = 0.02114), 784.99 ± 0.49 kg/m3; in series [2] (m1 = 0.02115) it was 785 ± 0.49 kg/m3.
In the case of `CO` [methanol], in series [1], the mass density came to 786.38 ± 0.49 kg/m3.
`O=[N+]([O-])c1ccccc1` [nitrobenzene] + CC[N+](CC)(CC)CC.[I-]: the mass density in series [2] (m2 = 0) is on record as 1198.91 ± 0.72 kg/m3.
Regarding `CO` [methanol] + CC[N+](CC)(CC)CC.[I-], the mass density in series [2] (m2 = 0) is 786.38 ± 0.49 kg/m3.
As for `CC(C)=O` [acetone] + CC[N+](CC)(CC)CC.[I-], in series [2] (m2 = 0), the mass density was 783.81 ± 0.5 kg/m3.
In the case of `CC[N+](CC)(CC)CC.[I-]` [tetraethylammonium iodide] + O=[N+]([O-])c1ccccc1, the mass density in series [2] (m1 = 0.0001) was 1198.91 ± 0.72 kg/m3; in series [2] (m1 = 0.0002) it was 1198.91 ± 0.72 kg/m3; in series [2] (m1 = 0.003538), 1198.97 ± 0.72 kg/m3; in series [2] (m1 = 0.007075), 1199.04 ± 0.72 kg/m3; in series [2] (m1 = 0.0106), 1199.1 ± 0.72 kg/m3; in series [2] (m1 = 0.01415), 1199.17 ± 0.72 kg/m3. The mass density is 1199.17 ± 0.72 kg/m3 in series [2] (m1 = 0.01416); 1199.23 ± 0.72 kg/m3 in series [2] (m1 = 0.0177); 1199.29 ± 0.72 kg/m3 in series [2] (m1 = 0.02119); 1199.36 ± 0.72 kg/m3 and 1199.35 ± 0.72 kg/m3 in series [2] (m1 = 0.02469).
For `O=[N+]([O-])c1ccccc1` [nitrobenzene], in series [1], the mass density came out at 1198.91 ± 0.72 kg/m3.
In the case of `CC(C)=O` [acetone], in series [1], the mass density is given as 783.81 ± 0.5 kg/m3.
On to `CC#N` [acetonitrile] + CC[N+](CC)(CC)CC.[I-], for which, in series [2] (m2 = 0), the mass density turned out to be 776.01 ± 0.6 kg/m3.
Turning to `CC[N+](CC)(CC)CC.[I-]` [tetraethylammonium iodide] + CO, the mass density in series [2] (m1 = 0.0001) is reported as 786.38 ± 0.49 kg/m3; in series [2] (m1 = 0.0002), 786.38 ± 0.49 kg/m3; in series [2] (m1 = 0.00354) it was 786.54 ± 0.49 kg/m3; in series [2] (m1 = 0.003541), 786.54 ± 0.49 kg/m3; in series [2] (m1 = 0.003542) it was 786.54 ± 0.49 kg/m3; in series [2] (m1 = 0.007079) it was 786.69 ± 0.49 kg/m3. In addition, the mass density turned out to be 786.69 ± 0.49 kg/m3 in series [2] (m1 = 0.00708); 786.69 ± 0.49 kg/m3 in series [2] (m1 = 0.007081); 786.85 ± 0.49 kg/m3 in series [2] (m1 = 0.01062); 786.85 ± 0.49 kg/m3 in series [2] (m1 = 0.01063); 787 ± 0.49 kg/m3 in series [2] (m1 = 0.01416); 787 ± 0.49 kg/m3 in series [2] (m1 = 0.01417). The mass density in series [2] (m1 = 0.0176) is 787.17 ± 0.49 kg/m3 and 787.18 ± 0.49 kg/m3; in series [2] (m1 = 0.02124) it was 787.31 ± 0.49 kg/m3; in series [2] (m1 = 0.02832) it was 787.63 ± 0.49 kg/m3 and 787.62 ± 0.49 kg/m3.
